assay: Human HepG2 cell viability assay in 384 well format; assay type: toxicity, cell-based; set-up: dose 125 nL, time 70.5 hour; cytotoxicity at 70.5 h: concentration not given beside the values; details: HepG2 cells, read-out: Inhibition

Compound | cytotoxicity at 70.5 h [%]
CCC(C)NS(=O)(=O)c1ccc(C(=O)N(C)C2(C#N)CCC2)cc1 (stereo not drawn) | -23.6
CC(CC(=O)NCCS(N)(=O)=O)C1CCCCC1 (stereo not drawn) | -9.82
CCn1ccc2ccnc(CC3CN(C(=O)Cn4ccnc4C)C3)c21 | -5.67
CC(C)Nc1nc2c(c(NC3CC3)n1)CCN(Cc1nccn1C)CC2 | -1.1
Cc1nn(CC(=O)N2CCC3(CN(C)C(=O)O3)C2)c(=O)c2ccccc12 (stereo not drawn) | -15
Cc1ccc(NC(=O)c2ccc(=O)n(CC(=O)Nc3nccs3)n2)cc1 | 23.1
Cc1cc(C)n(C2CN(c3ncnc4c3CCNCC4)C2)n1 | -9
Fc1ccc(-c2cnc(CN3CCOC(Cn4cccn4)C3)o2)cc1 (stereo not drawn) | -5.15
Cc1c(C(=O)NC2(C#N)CCSC2)cnn1-c1ccccc1Cl (stereo not drawn) | 1.06
Cc1ncsc1C(=O)NCCNc1ncccc1C#N | -8.88
Cn1cnc2c(-c3cccnc3)nc(C3CCNCC3)cc21 | 15.6
Cn1cc(C(=O)NCC2CCN(C(=O)NC3CC3)CC2)cn1 | -19.1
Cn1ccc(CN2CCC3(CCCN3CC3CC3)CC2)n1 | -6.07
Cc1nccn1CCCNc1nccnc1C#N | 44.8
c1cnn(CCCO[C@@H]2CC[C@H]3[C@H]2OCCN3CC2CCOCC2)c1 | -5.34
Cc1nc(NCCO)cc(C(C)Cn2nc(C)c(C)c2C)n1 (stereo not drawn) | -3.69
Cc1cccc(CN2C(=O)C[C@H]3[C@@H]2CCN3CC2CC2)n1 | -2.5
CC(C)Oc1ccccc1C(=O)NC1CC(=O)N(CC(F)(F)F)C1 (stereo not drawn) | -22.6
CN(C)C(=O)N1CCc2onc(C(=O)Nc3cccnc3)c2C1 | -19.2
CCc1nnc2n1CCN(CCC(=O)Nc1sccc1C#N)C2 | -3.22
CN(C)CC1CN(Cc2cccc(C#N)c2)Cc2nccn2C1 (stereo not drawn) | -6.48
CN(CC(=O)Nc1cccc(F)c1)Cc1nc(N)nc(N(C)C)n1 | 1.01
CCOCc1cnc2n1CCN(Cc1nc(C)cs1)C2C (stereo not drawn) | -3.1

Compound | cytotoxicity at 70.5 h [%]
COC(=O)Cn1cccc(S(=O)(=O)N2CCC(C)CC2)c1=O | 41
CCNS(=O)(=O)c1ccc(C)c(C(=O)N(C)Cc2ccco2)c1 | -5.04
Cc1ccc(C(C)NC(=O)N2CCN(C(=O)CC(F)(F)F)CC2)o1 (stereo not drawn) | -3.77
CNC(=O)c1cc2c(nc1NC(C)C)CCN(C(=O)NC(C)C)CC2 | -10.9
CSc1ncccc1C(=O)NCc1ccc(CS(=O)(=O)NC(C)C)cc1 | 2.32
CCC(C)CS(=O)(=O)NC(=O)C1CC1 (stereo not drawn) | -5.06
N#Cc1ccc(CNC(=O)NCCNC(=O)C2CCCC2)c(F)c1 | 13.4
Cc1cc(C(=O)NC2CCN(c3ncccc3C#N)CC2)no1 | -2.85
COc1c[nH]c(C(=O)N2CCN(c3cccc(Cl)c3)CC2)cc1=O | -8.19
CCOc1ccccc1OC1CCN(C(=O)c2[nH]nc(C)c2Br)CC1 | 0.076
COc1ccc(-c2nnc([C@H]3CCN(CC4CC4)C3)o2)cc1 | 2.78
Cc1cc(C)nc(N2CCCC(c3nccn3CCCN(C)C)C2)c1 (stereo not drawn) | -13.7
COc1cc(Br)cc(CNC2CCCNC2=O)c1O (stereo not drawn) | 2.96
CN(CCCO)c1nc(-c2ccc(C(N)=O)cc2)nc2c1CCNC2 | -13.3
CN1CCN(C[C@@H]2CN(C(=O)c3ccccc3C#N)C[C@@H]2CO)CC1 | 13.9
Cc1cncc(NC(=O)c2ccc(CN3CCC(CO)CC3)cc2)c1 | -16.3
Cc1ccccc1C(=O)N1CCN(c2ccc(-n3cncn3)nn2)CC1 | -4.18
NC(=O)C1CCCN(c2ncnc3c2Cc2ccccc2OC3)C1 (stereo not drawn) | 19
CN(Cc1ccccn1)C(=O)[C@H]1CO[C@H]2CCN(CC3CC3)C[C@H]2C1 | -5.92
Cc1csc(CNC(=O)NCC2(c3ccc4c(c3)OCO4)CC2)n1 | -2.06
CN(C)Cc1cnc2n1CCN(C(=O)Cc1ccsc1)CC2 | 8.26
Cc1ccnc(CC(C)N(C)c2cc(C3CCNCC3)nc(C)n2)c1 (stereo not drawn) | -3
CCc1ccc(CN2CCN(c3ccc(C(N)=O)cn3)CC2)nc1 | 2.82

Compound | cytotoxicity at 70.5 h [%]
c1coc(CN2CCO[C@H]3[C@H](OCC4CCCC4)CC[C@@H]32)c1 | 11.8
O=C(Cc1ccc2c(c1)OCO2)N1CCCN(c2nccs2)CC1 | -8.59
Cc1cc(=O)[nH]c(CCNC(=O)C(c2ccc(F)cc2)N(C)C)n1 (stereo not drawn) | 4.61
CCSc1ccc(C(=O)Nc2c(C)nn(C(C)C)c2C)cn1 | 14.1
CC(C)N(C)CC(=O)N1CCCC(c2ccc(C(=O)O)cc2)C1 (stereo not drawn) | -5.3
CCN1CCCC(NC(=O)CCn2c(C(F)F)cc3cccnc32)C1 (stereo not drawn) | -4.62
Cc1c(C)n(Cc2ccncc2)c2nc3c(c(N)c12)CCCC3 | -7.64
Cc1cc(CN(C)C(=O)NCc2ccnc(N(C)C)c2)no1 | -1.17
O=C(CCCc1ccccn1)Nc1cccc(N2CCCNC2=O)c1 | -0.166
COc1cc(C(=O)NS(=O)(=O)c2cccc(C#N)c2)cc(OC)c1Br | -6.73
COc1ccccc1OCc1nc(C(C)C)no1 | 12.8
CCC1CN(CC(=O)N2CCCC2)CCN1CCOC (stereo not drawn) | -10.3
Cc1nn(CC(=O)N2CCCCC2Cn2cccn2)c(C)c1Cl (stereo not drawn) | -0.411
Cc1cc(O)nc(C2CCN(C(=O)CO)CC2)n1 | -3.54
O=C(CS(=O)(=O)Cc1ccccc1)NC1CCCCNC1=O (stereo not drawn) | 12.6
Cc1nnc(N2CCN(C(=O)NC3CC3)CC2)c(C(N)=O)c1C | -15.7
N#Cc1ncn(CCC(=O)Nc2ccc(F)c(F)c2)n1 | -9.3
O=C(NC1CCCCC1)c1c(F)cccc1F | 4.08
Cc1nc(N(C)C)nc(C)c1NC(=O)c1ccccc1C(F)(F)F | -11
O=C(c1cccc(Cl)c1Cl)N1CCN(CC(O)Cn2cccn2)CC1 (stereo not drawn) | -2.95
OC1CCN(C2CCN(c3ccc(Cn4ccnc4)cn3)CC2)CC1 | -17.9
Cn1cccc1C(=O)N1CCCC2(CCN(CCN3CCCC3)C2=O)C1 (stereo not drawn) | -2.83
CCc1ccc(S(=O)(=O)Nc2ccc(F)cc2C(=O)O)s1 | 5.89

Compound | cytotoxicity at 70.5 h [%]
CC(CO)NC(=O)Nc1ccc(COC2CCCC2)cc1 (stereo not drawn) | -2.03
Cc1noc(CCCC(=O)N2CSCC2C(=O)NCC2CC2)n1 (stereo not drawn) | -7.96
CCOCCNC(=O)C(CCSC)NC(=O)c1ccc2ccccc2n1 (stereo not drawn) | 5.06
CC(NC(=O)NC1CCN(Cc2ccncc2)CC1)c1ccccc1F (stereo not drawn) | -22.4
Cc1c(C(=O)N2CCN(C)CC2)n(C)c2ccc(Cl)cc12 | -11.7
CCCc1nc(CNc2nc(C)nc3oc(C)nc23)cs1 | -6.15
COc1ccc(C(NCc2cccc(O)c2)C2CC2)cc1 (stereo not drawn) | 16.8
CCC1=N[C@@]2(CC[C@@H]3CN(C(=O)NCc4ccccc4C)C[C@@H]32)C(=O)N1 | -11.1
CCC(=O)N1CCC2(CC1)C(=O)N(C)CCN2Cc1csc(C)n1 | -4.08
O=C(NCCO)NC(c1ccccc1)c1ccc2c(c1)CCCO2 (stereo not drawn) | -12.9
CN(C)C(=O)c1c[nH]nc1-c1ccc(CNC(=O)c2cnccn2)cc1 | -1.73
CSc1ncccc1C(=O)NCCC(O)c1cccs1 (stereo not drawn) | -2.95
O=C1CC(c2ccccc2)C2(CCN(Cc3nccs3)CC2)N1 (stereo not drawn) | -9.09
Cc1noc(C)c1CS(=O)(=O)Cc1nc(C2CC2)no1 | -0.106
CC(C)(CNC(=O)Nc1ccc(S(=O)(=O)C(F)F)cc1)N1CCOCC1 | -7.87
COc1ccccc1CN1CC[C@]2(C[C@H](OC)CO2)C1 | -12.6
CN(C)c1ncccc1CNS(=O)(=O)c1c(F)cccc1F | -8.75
N#Cc1cc(F)ccc1NCc1ccc(Cn2cncn2)cc1 | -3.41
CCc1c(C)nc2cc(-c3nccn3C)nn2c1N1CCCC(CO)C1 (stereo not drawn) | 27.9
Cc1cc2ccccc2n1CCC(=O)NCCCc1nnc(N)s1 | 33.9
CCS(=O)(=O)c1ncc(CN(C)C)n1Cc1ccccc1 | -3.58
O=C(C[C@@H]1COC[C@H]2CN(Cc3ccncc3)C[C@@H]12)N1CCCC1 | 11.8
N#Cc1cccc(N2CCC(CO)(CCc3ccccc3)CC2)n1 | -5.51

Compound | cytotoxicity at 70.5 h [%]
CC(C)Cc1cc(C(=O)NCC(O)CN2CCCCCC2)on1 (stereo not drawn) | -3.2
O=C(NCc1cnc2n1CCN(CC1CCOCC1)C2)c1ccno1 | 31.3
CCC(=O)NC1CCN(c2cccc(OC(F)(F)F)c2)C1=O (stereo not drawn) | -2.63
Cc1c(-c2cc(C(F)(F)F)nc(N3CCC(N)CC3)n2)cnn1C | 32.2
CNS(=O)(=O)CC(=O)NC(C)Cc1ccc(-c2ccccc2)cc1 (stereo not drawn) | 1.33
COc1ccc(C2=CCN(C(=O)CN(C)CC(C)C#N)CC2)cc1 (stereo not drawn) | 44.4
COC1COC2(CCN(C(=O)c3cnc(C)cn3)CC2)C1 (stereo not drawn) | -6.81
CC(=O)NCCCC(=O)NC(C)c1nnc2n1CCC2 (stereo not drawn) | -11.1
COc1cc2c(cc1CN1CCn3c(CO)nnc3C1)CCC2 | 8.8
Cc1noc([C@@H]2CC[C@@H]3[C@@H](CCN3S(=O)(=O)c3cccnc3)O2)n1 | -4.36
CCN(Cc1cccc2c1OCCO2)C(=O)NC(C)(C)C | -2.31
CCC(C(=O)NCc1ccncc1)N(c1cccc(C)c1)S(C)(=O)=O (stereo not drawn) | -9.28
CN(C)CC(=O)N1CCC2(CC1)CN(c1ccsc1)C(=O)CO2 | 21
CCn1ccnc1CN1CCN(CC(O)CN2CCOCC2)CC1 (stereo not drawn) | -15.7
CS(=O)(=O)N[C@H]1CN(C(=O)CCc2ccc(=O)[nH]n2)C[C@@H]1C1CC1 | -7.22
Cc1oc2c(c1C(=O)N1CC[C@H](O)[C@]3(CCCO3)C1)CCCC2 | -5.7
COc1ccc2cc(CN(C)C(C)c3nc(C4CC4)no3)ccc2c1 (stereo not drawn) | -0.253
Cc1cnn(C2CN(Cc3noc(C4CC4)n3)C2)c1 | -4.77
CN1CCO[C@@H]2CN(C(=O)NCc3ccccc3)CC[C@@H]2C1 | 9.51
CC1CCN(CC(=O)N(C)CCc2noc(C3CC3)n2)C1=O (stereo not drawn) | -5.01
COCC(=O)NCCn1nc(-c2cc(C)oc2C)ccc1=O | -2.12
